Assay results published in ChEMBL document CHEMBL1145424, “Novel boron-containing, nonclassical antifolates: synthesis and preliminary biological and structural evaluation” (J Med Chem, 2007).
Values after ≈ are worked out from the molar mass of the structure shown.

Tests used:
DLD-1 = test: Growth inhibition of human DLD1 cells after 72 hrs; format: functional, cell-based; conditions: DLD-1, 72 h
CAKI-1 = test: Growth inhibition of human CAKI1 cells after 72 hrs; format: functional, cell-based; conditions: CAKI-1, 72 h
PC-3 = test: Growth inhibition of human PC3 cells after 72 hrs; format: functional, cell-based; conditions: PC-3, 72 h
LOX IMVI = test: cells; conditions: Homo sapiens, 72 h
Description: Growth inhibition of human LOX IMVI cells after 72 hrs

SNB-7 = test: Growth inhibition of human SNB7 cells after 72 hrs; format: functional, cell-based; conditions: SNB-7, 72 h
ZR-75-1 = test: Growth inhibition of human ZR-75-1 cells after 72 hrs; format: functional, cell-based; conditions: ZR-75-1, 72 h
NCI-H23 = test: cells; conditions: Homo sapiens, NCI-H23, 72 h
Description: Growth inhibition of human NCI-H23 cells after 72 hrs

## CN(Cc1cnc2nc(N)nc(N)c2n1)c1ccc(C(=O)N[C@@H](CCC(=O)O)C(=O)O)cc1 [METHOTREXATE]
DLD-1
  IC50: > 60 µg/mL
CAKI-1
  IC50: > 60 µg/mL
PC-3
  IC50: 0.027 µg/mL (≈ 0.0594 µM)
LOX IMVI
  IC50: 0.057 µg/mL (≈ 0.125 µM)
SNB-7
  IC50: > 60 µg/mL
ZR-75-1
  IC50: > 60 µg/mL
NCI-H23
  IC50: 0.29 µg/mL (≈ 0.638 µM)
